Reference: patent US9546354B2, “Z cells activated by zinc finger-like protein and uses thereof in cancer treatment” (National Cheng Kung University, priority 2014, dated 2017)
“Also recorded” adds a separate entry of the source. No end group written: not given here. TMR = tetramethylrhodamine label

What was measured:
[1] = system: Z cell function; test: screen of more than 300 compounds for boosting Z cell function; details: alone or in combination with a Zfra peptide
Source text: In this example, more than 300 hundred compounds were screened for their activities in boosting Z cell function either alone or in combination with a Zfra peptide. From this collection of compounds, CI-4AS-1 (androgen receptor agonist) and (±)-Blebbistatin (inhibitor for non-muscle myosin II ATPase) were identified.

[2] = system: spleen Z cells; test: level of TMR-Zfra-positive spleen Z cells by cell sorting; type: in vivo; details: Zfra-treated BALB/c mice inoculated with B16F10 melanoma
Protocol: (§1) FIG. 3 is a diagram showing identification of Z spleen cells. (A) Nude mice were pre-injected with sterile MilliQ water or a mixture of Zfra1-31 (2 mM in 100 μl sterile water) in 4 consecutive weeks, followed by inoculating malignant breast MDA-MB-231 cells on both flanks 7 and 50 days later. Tumor sizes on both flanks (blue and red) were measured daily. […] These mice were sacrificed, and TMR-Zfra-positive spleen cells were isolated by cell sorting. TMR-Zfra-positive Z spleen cells were around 25% in Zfra-treated mice. […] In B16F10 melanoma-growing BALB/c mice, spleen Z cells dropped down to 3.3% or even lower. In untreated control mice, Z cells are around 25-29%.
Next, the levels of spleen Z cells in mice pre-treated with full-length Zfra1-31 or control and inoculated with B16F10 melanoma cells were examined. B16F10-growing BALB/c mice had low levels of Z cells, which were 3.3% or lower (FIG. 3C). In contrast, Zfra-treated mice had 26.1% Z cells (FIG. 3C). […] These cells are Hyal-2 positive. The observations indicate that Z cells (e.g., Hyal-2 positive spleen cells) are depleted in mice having cancer growths, and that treatment with Zfra increases the number of Z cells in mice having cancer growths.
Spleen cells from the mice were isolated and stained with synthesized peptide TMR-Zfra1-31 (Tetramethylrhodamine-Zfra, excitation 550 nm, emission 573 nm) for 30 minutes on ice.

[3] = system: melanoma B16F10 cells; test: melanoma B16F10 growth in pre-injected BALB/c mice; type: in vivo; details: pre-injection before inoculation, immune competent BALB/c mice
Protocol: as §1
FIG. 4A is a diagram showing in vivo animal models design to test the anticancer efficacy of chemical drugs and “Z cells” activation. Immune competent BALB/c mice or immune deficient NOD-SCID mice were pre-injected with CI-4AS-1 or (±)-Blebbistatin with or without zinc finger-like Zfra4-10 peptide once per week for 3 consecutive weeks, and then inoculated with 2.5×10^6 or 1.5×10^6 malignant melanoma B16F10 cells at both right and left flanks. After 60 days, spleen cells transferred were performed from BALB/c to NOD-SCID mice via tail veins injection. Thirty days later, the recipient mice were inoculated with 1.5×10^6 malignant melanoma B16F10 cells at both right and left flanks. […]

[4] = system: DsRed-Hyal-2; test: Förster resonance energy transfer (FRET) analysis; type: binding; details: versus EGFP and DsRed controls, n=10, p<0.005
[5] = system: breast MDA-MB-231 cells; test: breast MDA-MB-231 xenograft growth in pre-injected nude mice; type: in vivo; details: pre-injected once per week for 4 weeks
Protocol: as §1

[6] = system: melanoma B16F10 cells; test: melanoma B16F10 lung metastasis after tail-vein inoculation in pre-injected BALB/c mice; type: in vivo
Protocol: (§2) FIG. 1 includes photos showing that Zfra suppresses melanoma B16F10 metastasis to the lung and cancer stemness. BALB/c mice were pre-injected with sterile MilliQ water or Zfra4-10 (1 mM in 100 μl sterile water) in 3 consecutive weeks. Post-treatment for a week, these mice were inoculated with melanoma B16F10 cells via tail veins (2×10^5 cells in 100 μl PBS). Control mice died 50 days later, and Zfra-treated mice were alive and sacrificed for examination. A: Shown on the lung surface are the metastatic tumor foci as dark areas in control mice. […] No metastases were found in other organs in both mice. C: Zfra suppressed Ser14 phosphorylation of […] (or Wwox) in the lung of Zfra treated mice (˜65% suppression).
BALB/c mice were pre-injected with sterile MilliQ water or Zfra4-10 (1 mM in 100 μl sterile water) once per week in three consecutive weeks. Following one week post-treatment, the mice were inoculated with melanoma B16F10 cells via tail veins (2×10^5 cells in 100 μl PBS).
(§3) Importantly, cancer cell stemness, as determined by the expression of pluripotent stem cell markers Oct-4 and SSEA-4, was blocked in the lungs of Zfra4-10 treated mice (FIG. 1D). Thus, when WWOX phosphorylation at Ser14 is blocked by Zfra, cancer cell metastasis and stemness is prevented.

[7] = system: Z cells; test: Z cell activation by Zfra peptide; type: cell-based, BALB/c mice; details: in vivo and in vitro
Protocol: Briefly, spleen cells were isolated from BALB/c mice and then cultured overnight. These cells were stimulated with Zfra4-10 peptide (10 μM) for 16-24 hr, and then stained with TMR-Zfra, followed by isolating the cells using a cell sorter. Z+ and Z− cell populations were counted and injected via tail veins of BALB/c. […] FIG. 5.

[8] = system: WWOX; test: Ser14 phosphorylation of WWOX and Wwox protein level in the lung of treated mice; type: in vivo, BALB/c mice
Protocol: as §2, §3

[9] = molecular target: T1, membrane hyaluronidase Hyal-2 (Mus musculus, UniProt O35632); test: staining of spleen cells with TMR-Zfra and Hyal-2 antibody, epifluorescence and confocal microscopy; type: binding, NOD-SCID mice; details: 30 minutes on ice
T1 construct: spleen cells were isolated from immune deficient NOD-SCID mice; from tissue; host or cells: spleen cells of NOD-SCID mice
T1 sequence (O35632 21-448): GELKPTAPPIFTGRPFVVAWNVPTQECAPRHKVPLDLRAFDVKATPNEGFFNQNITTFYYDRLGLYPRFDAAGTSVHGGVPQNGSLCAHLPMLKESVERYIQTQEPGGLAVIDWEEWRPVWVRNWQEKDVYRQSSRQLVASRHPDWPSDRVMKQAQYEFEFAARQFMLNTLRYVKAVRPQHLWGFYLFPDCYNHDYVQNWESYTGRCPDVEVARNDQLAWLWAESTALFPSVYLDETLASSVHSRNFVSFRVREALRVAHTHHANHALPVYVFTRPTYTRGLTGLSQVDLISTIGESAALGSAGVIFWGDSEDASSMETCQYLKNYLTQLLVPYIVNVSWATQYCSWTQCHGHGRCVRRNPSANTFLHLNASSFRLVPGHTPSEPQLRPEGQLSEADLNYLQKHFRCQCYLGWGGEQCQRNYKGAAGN
Protocol: FIG. 2 includes photos showing the identification of Zfra^+ Hyal-2^+ spleen cells. A and B: Spleen cells of NOD-SCID mice were isolated and stained with synthesized peptide TMR-Zfra1-31 and Hyal-2 (green fluorescence) antibody for 30 minutes on ice, and then fixed with 4% formaldehyde.
In this example, spleen cells were isolated from immune deficient NOD-SCID mice, which are deficient in T and B lymphocytes and NK cells. The isolated spleen cells were stained with antibody against Hyal-2 (green) and TMR-Zfra (Zfra1-31 labeled with red fluorescent tetramethylrodamine) for 30 minutes on ice, and then fixed with 4% formaldehyde (FIG. 2). […] These Hyal-2^+ Zfra^+ positive cells are interchangeably referred to as “Z cells,” for cells interacting with Zfra.

CI-4AS-1
outcome of screen for boosting Z cell function [1]: identified

Zfra: Zfra peptide, form not stated at the place (Zfra1-31 or Zfra4-10) (MSSRRSSSCKYCEQDFRAHTQKNAATPFLAN)
TMR-Zfra-positive Z spleen cells [2]: around 25%
growth of melanoma B16F10 in BALB/c mice [3]: completely blocked
binding to Hyal-2 by FRET [4]: binding of Zfra to membrane Hyal-2

Cc1ccc2c(c1)C(=O)C1(O)CCN(c3ccccc3)C1=N2 (racemic) [(±)-Blebbistatin]
outcome of screen for boosting Z cell function [1]: identified

NH-MSSRRSSSCKYCEQDFRAHTQKNAATPFLAN-COOH (H-MSSRRSSSCKYCEQDFRAHTQKNAATPFLAN-OH; cysteine pairing not given here) [Zfra1-31]
growth of breast MDA-MB-231 xenografts [5]: resisted the growth
TMR-Zfra-positive Z spleen cells [2]: 26.1%

RRSSSCK [Zfra4-10]
cancer cell stemness (pluripotent markers Oct-4 and SSEA-4) in the lung ([6]; B16F10 cells in the lung, FIG. 1D): suppressed the stemness; also recorded: blocked
melanoma B16F10 metastasis to the lung ([6]; Zfra4-10 1 mM in 100 μl once per week for 3 weeks before 2×10^5 B16F10 cells via tail veins): Metastasis was not found; also recorded: suppressed melanoma B16F10 metastasis to the lung
survival of mice ([6]; when control mice died 50 days after inoculation of B16F10 cells): remained alive
Z cell activation [7]: sufficient to induce Z cell activation both in vivo and in vitro
Wwox protein levels ([8]; lung of Zfra treated mice): not suppressed
suppression of Ser14 phosphorylation of WWgre (or Wwox) in the lung ([8]; lung of Zfra treated mice, FIG. 1C): ~65%
Ser14 phosphorylation of WWOX (in words) ([8]; lung of treated mice, FIG. 1C): inhibition of Ser14 phosphorylation of WWOX
growth of melanoma B16F10 in BALB/c mice [3]: prevented melanoma B16F10 growth

TMR-Zfra1-31: Zfra1-31 labeled with red fluorescent tetramethylrodamine ({TMR}-MSSRRSSSCKYCEQDFRAHTQKNAATPFLAN; cysteine pairing not given here)
binding to or colocalization with membrane Hyal-2 on spleen cells [9]: bound to membrane hyaluronidase Hyal-2
binding to or colocalization with membrane Hyal-2 on spleen cells ([9]; listed as TMR-Zfra): colocalization of both proteins on the cell surface

EGFP-Zfra: EGFP-tagged Zfra used in FRET analysis with DsRed-Hyal-2 (MSSRRSSSCKYCEQDFRAHTQKNAATPFLAN; cysteine pairing not given here; also: EGFP tag fused, end not given here) [reference compound]
binding to Hyal-2 by FRET [4]: significant binding
